Target: Tyrosine-protein kinase BTK (Homo sapiens, UniProt Q06187)
Assay: Enzymatic Activity Assay: A Caliper-based kinase assay (Caliper Life Sciences, Hopkinton, Mass.) was used to measure inhibition of BTK kinase activity of a compound of the present disclosure. Serial dilutions of test compounds were incubated with human recombinant BTK (0.5 nM), ATP (16 μM) and a phosphoacceptor peptide substrate FAM-[…]-NH2(1 μM) at room temperature for 3 h. The reaction was then terminated with EDTA, final concentration 20 mM and the phosphorylated reaction product was quantified on a Caliper Desktop Profiler (Caliper LabChip 3000).

Tyrosine-protein kinase BTK, sequence (Q06187 whole entry): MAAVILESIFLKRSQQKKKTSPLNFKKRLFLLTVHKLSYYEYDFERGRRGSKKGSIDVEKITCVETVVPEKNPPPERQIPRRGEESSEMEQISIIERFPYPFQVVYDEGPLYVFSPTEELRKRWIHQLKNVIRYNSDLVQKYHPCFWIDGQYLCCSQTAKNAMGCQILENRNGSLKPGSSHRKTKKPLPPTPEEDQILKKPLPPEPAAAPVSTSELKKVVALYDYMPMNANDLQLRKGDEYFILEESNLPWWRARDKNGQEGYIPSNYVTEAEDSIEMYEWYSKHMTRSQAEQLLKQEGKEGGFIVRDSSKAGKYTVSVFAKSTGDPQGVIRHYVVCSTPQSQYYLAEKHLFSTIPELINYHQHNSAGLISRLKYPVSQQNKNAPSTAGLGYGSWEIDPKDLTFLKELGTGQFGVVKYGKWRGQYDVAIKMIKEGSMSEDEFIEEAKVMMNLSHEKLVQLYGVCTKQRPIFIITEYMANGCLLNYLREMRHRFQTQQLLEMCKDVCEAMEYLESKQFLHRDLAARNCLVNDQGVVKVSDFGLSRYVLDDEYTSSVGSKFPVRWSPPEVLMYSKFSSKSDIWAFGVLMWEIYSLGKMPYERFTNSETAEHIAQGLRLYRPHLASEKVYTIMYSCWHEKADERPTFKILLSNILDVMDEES

IC50: 24 nM
Structure (SMILES): CC(C)(C=C(C#N)C(=O)N1CCC[C@@H](n2c(=O)n(-c3ccc(Oc4ccccc4)cc3)c3c(N)nccc32)C1)C(=O)N1CCN(C2COC2)CC1

From ChEMBL document CHEMBL5725365, “Tyrosine kinase inhibitors” (2017)
